Legend:
[1] = Plasma levels in dogs given medicated daily feed at different dosage levels (Example 6); format: in vivo, dog; design: unit not given here
From the text: Methods: A pool of dogs are to be preliminarily infested with ˜50 unfed adult R. sanguineus ticks in order to produce dogs that can suitably sustain a reliable infestation rate, defined as approximately 25% of attached ticks being live at the end of a 72-hour period. The 24 dogs with the highest live attached tick counts are to be selected for inclusion in the study. The 18 dogs with the highest live attached tick counts are to be randomly assigned to one of a control group and 2 treatment groups. The 6 dogs with the next highest live attached tick counts are to be assigned to a third treatment group.
The dogs are to be housed individually during the study period and are to have ad libitum access to water.
Each dog in a treatment group (test groups 2-4) is to receive a medicated daily feed from study days 0-49. The medicated daily feed is to be offered to the dogs for 1 hour on each of days 0-49 according to test groups listed in TABLE 7.
Blood is to be drawn at 0, 1, 3, 6, 10, 24, 48, 96, 168, 240 and 336 hours after the initial dose of isoxazoline is administered.

[2] = Plasma concentration in dogs after daily oral liquid dosing (Example 1); format: in vivo; settings: dog plasma, individual canines, 0.75 mg/kg/day oral days 0-29; Day -1 (pre-dose)
Method: Each dog in the treatment group is to receive by mouth a liquid formulation of isoxazoline. The dosage of 0.75 mg/kg is to be administered to the dogs on each of days 0-29.
Dogs in the control group are not to receive isoxazoline or any other flea control treatment. Each dog in the treatment group is to be offered its daily ration (dry food) and the individual doses of liquid formulation are to be administered after the individual dog has eaten at least 25% of its total daily ration. After receiving the dose of isoxazoline, the dogs are to be allowed to continue eating. This mimics incorporating the isoxazoline in feed. Each dog in the treatment group and the control group is to be experimentally infested with 100 unfed adult fleas on test days 2, 5, 12, 20 and 35. Comb counts for live adult fleas are to be conducted on days 4, 7, 14, 21 and 37.

**Q.** With O=C(CNC(=O)c1sc(C2=NO[C@@](c3cc(Cl)c(F)c(Cl)c3)(C(F)(F)F)C2)c2c1CCC2)NCC(F)F [Mivorilaner, 3-[(5S)-5-(3,5-dichloro-4-fluorophenyl)-5-(trifluoromethyl)-4,5-dihydroisoxazol-3-yl]-N-[2-[(2,2-difluoroethyl)amino]-2-oxoethyl]-5,6-dihydro-4H-cyclopenta[c]thiophene-1-carboxamide] as the compound, how does the “average plasma concentration of isoxazoline” value (shortened to “average plasma concentration”) ([1]; Group 2 - 106 mg/kg feed (anticipated 1 mg/kg daily), 1 hr) read?
**A.** 49.98

**Q.** And the “average plasma concentration” value ([1]; Group 2 - 106 mg/kg feed (anticipated 1 mg/kg daily), 3 hr)?
**A.** 292.00

**Q.** What about the “average plasma concentration” value ([1]; Group 2 - 106 mg/kg feed (anticipated 1 mg/kg daily), 6 hr) of the same compound?
**A.** 539.00

**Q.** And the “average plasma concentration” value ([1]; Group 2 - 106 mg/kg feed (anticipated 1 mg/kg daily), 10 hr)?
**A.** 505.40

**Q.** What about the “average plasma concentration” value ([1]; Group 2 - 106 mg/kg feed (anticipated 1 mg/kg daily), 24 hr) of the same compound?
**A.** 458.60

**Q.** And the “average plasma concentration” value ([1]; Group 2 - 106 mg/kg feed (anticipated 1 mg/kg daily), 48 hr)?
**A.** 771.83

**Q.** And the “average plasma concentration” value ([1]; Group 2 - 106 mg/kg feed (anticipated 1 mg/kg daily), 96 hr)?
**A.** 1570.50

**Q.** What about the “average plasma concentration” value ([1]; Group 2 - 106 mg/kg feed (anticipated 1 mg/kg daily), 168 hr) of the same compound?
**A.** 2156.67

**Q.** What about the “average plasma concentration” value ([1]; Group 2 - 106 mg/kg feed (anticipated 1 mg/kg daily), 240 hr) of the same compound?
**A.** 3003.33

**Q.** And the “average plasma concentration” value ([1]; Group 2 - 106 mg/kg feed (anticipated 1 mg/kg daily), 336 hr)?
**A.** 3290.00

**Q.** And the “average plasma concentration” value ([1]; Group 3 - 106 mg/kg feed (anticipated 1 mg/kg daily), 1 hr)?
**A.** 40.41

**Q.** And the “average plasma concentration” value ([1]; Group 3 - 106 mg/kg feed (anticipated 1 mg/kg daily), 3 hr)?
**A.** 264.83

**Q.** What about the “average plasma concentration” value ([1]; Group 3 - 106 mg/kg feed (anticipated 1 mg/kg daily), 6 hr) of the same compound?
**A.** 467.50

**Q.** And the “average plasma concentration” value ([1]; Group 3 - 106 mg/kg feed (anticipated 1 mg/kg daily), 10 hr)?
**A.** 419.17

**Q.** And the “average plasma concentration” value ([1]; Group 3 - 106 mg/kg feed (anticipated 1 mg/kg daily), 24 hr)?
**A.** 435.17

**Q.** What about the “average plasma concentration” value ([1]; Group 3 - 106 mg/kg feed (anticipated 1 mg/kg daily), 48 hr) of the same compound?
**A.** 781.83

**Q.** What about the “average plasma concentration” value ([1]; Group 3 - 106 mg/kg feed (anticipated 1 mg/kg daily), 96 hr) of the same compound?
**A.** 1596.67

**Q.** What about the “average plasma concentration” value ([1]; Group 3 - 106 mg/kg feed (anticipated 1 mg/kg daily), 168 hr) of the same compound?
**A.** 2406.67

**Q.** And the “average plasma concentration” value ([1]; Group 3 - 106 mg/kg feed (anticipated 1 mg/kg daily), 240 hr)?
**A.** 3026.67

**Q.** What about the “average plasma concentration” value ([1]; Group 3 - 106 mg/kg feed (anticipated 1 mg/kg daily), 336 hr) of the same compound?
**A.** 3516.67

**Q.** And the “average plasma concentration” value ([1]; Group 4 - 318 mg/kg feed (anticipated 3 mg/kg daily), 1 hr)?
**A.** 143.75

**Q.** And the “average plasma concentration” value ([1]; Group 4 - 318 mg/kg feed (anticipated 3 mg/kg daily), 3 hr)?
**A.** 846.50

**Q.** And the “average plasma concentration” value ([1]; Group 4 - 318 mg/kg feed (anticipated 3 mg/kg daily), 6 hr)?
**A.** 1265.67

**Q.** And the “average plasma concentration” value ([1]; Group 4 - 318 mg/kg feed (anticipated 3 mg/kg daily), 10 hr)?
**A.** 1198.17

**Q.** And the “average plasma concentration” value ([1]; Group 4 - 318 mg/kg feed (anticipated 3 mg/kg daily), 24 hr)?
**A.** 1021.17

**Q.** What about the “average plasma concentration” value ([1]; Group 4 - 318 mg/kg feed (anticipated 3 mg/kg daily), 48 hr) of the same compound?
**A.** 2011.67

**Q.** And the “average plasma concentration” value ([1]; Group 4 - 318 mg/kg feed (anticipated 3 mg/kg daily), 96 hr)?
**A.** 3928.33

**Q.** And the “average plasma concentration” value ([1]; Group 4 - 318 mg/kg feed (anticipated 3 mg/kg daily), 168 hr)?
**A.** 6461.67

**Q.** And the “average plasma concentration” value ([1]; Group 4 - 318 mg/kg feed (anticipated 3 mg/kg daily), 240 hr)?
**A.** 8696.67

**Q.** And the “average plasma concentration” value ([1]; Group 4 - 318 mg/kg feed (anticipated 3 mg/kg daily), 336 hr)?
**A.** 11600.00

**Q.** And the “Mivorilaner Concentration” value [2]?
**A.** BLQ

— patent publication US20230414569A1, “ORAL CANINE FEED AND METHODS FOR CONTROLLING FLEA INFESTATIONS IN A CANINE” (In the Bowl Animal Health, Inc., priority 2021, published 2023)
